Results: ChEMBL document CHEMBL5465560, “Selectivity Literature for EUbOPEN Chemogenomic Library” (2024)
Values belong to the compound of their own block, whether it stands above or below them.

Columns and labels:
[1] = target: T1, NUAK family SNF1-like kinase 2 (Homo sapiens) (UniProt Q9H093); conditions: at 10 µM
T1 sequence (whole entry): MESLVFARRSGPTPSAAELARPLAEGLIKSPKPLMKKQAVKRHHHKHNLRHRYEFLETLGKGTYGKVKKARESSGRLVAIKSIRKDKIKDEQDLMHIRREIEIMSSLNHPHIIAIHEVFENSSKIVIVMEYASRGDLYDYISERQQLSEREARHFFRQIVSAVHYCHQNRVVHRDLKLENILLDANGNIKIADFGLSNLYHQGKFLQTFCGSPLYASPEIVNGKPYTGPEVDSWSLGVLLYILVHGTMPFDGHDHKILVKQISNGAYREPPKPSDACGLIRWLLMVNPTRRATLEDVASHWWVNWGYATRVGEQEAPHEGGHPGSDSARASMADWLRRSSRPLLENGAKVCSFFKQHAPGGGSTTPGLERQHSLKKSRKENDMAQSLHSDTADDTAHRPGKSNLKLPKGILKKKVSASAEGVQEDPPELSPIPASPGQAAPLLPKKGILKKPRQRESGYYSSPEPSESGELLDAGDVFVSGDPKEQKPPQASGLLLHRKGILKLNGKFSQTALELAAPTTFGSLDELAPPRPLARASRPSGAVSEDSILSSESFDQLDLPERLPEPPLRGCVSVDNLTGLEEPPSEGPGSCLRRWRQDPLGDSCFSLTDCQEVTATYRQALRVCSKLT

[2] = target: Tyrosine-protein kinase CSK (Homo sapiens) (UniProt P41240); conditions: at 10 µM
[3] = target: Mitogen-activated protein kinase 10 (Homo sapiens, UniProt P53779); conditions: at 10 µM
[4] = target: Fibroblast growth factor receptor 3 (Homo sapiens, UniProt P22607); test: (§1) Selectivity interaction (SelectScreen profiling (Invitrogen)) EUB0000607a FGFR3; conditions: at 2 µM
[5] = tested on: Fibroblast growth factor receptor 3 (Homo sapiens), P22607 [K650E]; test: as §1; conditions: at 2 µM
[6] = target: Calcium/calmodulin-dependent protein kinase type II subunit alpha (Homo sapiens, UniProt Q9UQM7); test: Selectivity interaction (KinomeScan (DiscoverX)) EUB0001619a CAMK2A; conditions: at 1 µM
[7] = target: Ribosomal protein S6 kinase alpha-3 (Homo sapiens, UniProt P51812); test: Selectivity interaction (KinomeScan (DiscoverX)) EUB0000045b RPS6KA3
[8] = target: Serine/threonine-protein kinase N2 (Homo sapiens, UniProt Q16513); conditions: at 10 µM
[9] = target: T2, Inhibitor of nuclear factor kappa-B kinase subunit epsilon (Homo sapiens) (UniProt Q14164); conditions: at 1 µM
T2 sequence (whole entry): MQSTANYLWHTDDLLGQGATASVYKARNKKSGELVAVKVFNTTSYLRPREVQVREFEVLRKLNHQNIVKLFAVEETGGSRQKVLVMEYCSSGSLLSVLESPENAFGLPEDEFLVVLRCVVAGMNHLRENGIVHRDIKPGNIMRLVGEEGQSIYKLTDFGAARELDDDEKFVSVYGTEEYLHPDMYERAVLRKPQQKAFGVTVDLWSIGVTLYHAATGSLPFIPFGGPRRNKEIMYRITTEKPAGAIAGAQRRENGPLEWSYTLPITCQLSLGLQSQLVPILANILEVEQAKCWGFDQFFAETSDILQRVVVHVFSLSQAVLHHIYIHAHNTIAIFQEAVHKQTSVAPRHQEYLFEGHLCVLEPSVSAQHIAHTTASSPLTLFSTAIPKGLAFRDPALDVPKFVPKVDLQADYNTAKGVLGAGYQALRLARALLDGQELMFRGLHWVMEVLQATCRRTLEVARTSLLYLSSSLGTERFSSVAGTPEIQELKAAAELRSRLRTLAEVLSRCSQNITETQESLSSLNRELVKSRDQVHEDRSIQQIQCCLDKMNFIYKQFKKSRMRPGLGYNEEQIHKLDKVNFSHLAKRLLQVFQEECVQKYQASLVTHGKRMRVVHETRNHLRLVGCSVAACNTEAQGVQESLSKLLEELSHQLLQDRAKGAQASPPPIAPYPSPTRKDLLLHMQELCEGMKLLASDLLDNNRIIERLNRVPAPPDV

[10] = target: Tyrosine-protein kinase Fer (Homo sapiens) (UniProt P16591); conditions: at 10 µM
[11] = target: Mitogen-activated protein kinase 14 (Homo sapiens, UniProt Q16539); conditions: at 10 µM
[12] = target: Calcium/calmodulin-dependent protein kinase kinase 2 (Homo sapiens) (UniProt Q96RR4); test: Selectivity interaction (ActivX KiNativ screen (kinase selectivity in THP-1 cell lysates)) EUB0000639a CAMKK2; assay type: subcellular; conditions: lysate, at 1 µM
[13] = target: Mitogen-activated protein kinase 3 (Homo sapiens, UniProt P27361); test: Selectivity interaction (ActivX KiNativ screen (kinase selectivity in THP-1 cell lysates)) EUB0000639a MAPK3; assay type: subcellular; conditions: lysate
[14] = target: DNA (cytosine-5)-methyltransferase 3B (Homo sapiens) (UniProt Q9UBC3); test: Selectivity interaction (PWWP, WD40, and Tudor domain panel (DSLS measurements, literature)) EUB0000270b DNMT3B
[15] = target: Mitogen-activated protein kinase kinase kinase 9 (Homo sapiens) (UniProt P80192); test: Selectivity interaction (KinomeScan (DiscoverX)) EUB0000229b MAP3K9; conditions: at 10 µM
[16] = target: Mitogen-activated protein kinase kinase kinase kinase 4 (Homo sapiens, UniProt O95819); test: Selectivity interaction (KinomeScan (DiscoverX)) EUB0000229b MAP4K4; conditions: at 10 µM
[17] = target: Receptor-interacting serine/threonine-protein kinase 2 (Homo sapiens, UniProt O43353); test: Selectivity interaction (KinomeScan (DiscoverX)) EUB0000229b RIPK2; conditions: at 10 µM
[18] = target: 3',5'-cyclic-AMP phosphodiesterase 4D (Homo sapiens) (UniProt Q08499); test: Selectivity interaction (Safety Panel 44tm (Eurofins)) EUB0000162b PDE4D; conditions: at 10 µM
[19] = target: T2, Inhibitor of nuclear factor kappa-B kinase subunit epsilon (Homo sapiens); test: Selectivity interaction (KinomeScan (DiscoverX)) EUB0001049a IKBKE; conditions: at 1 µM
Ephrin type-A receptor 4 = Ephrin type-A receptor 4 (Homo sapiens, UniProt P54764); test: Selectivity interaction (Kinase panel (33PanQinase(R) Activity Assay)) EUB0000877a EPHA4
[20] = target: Mitogen-activated protein kinase 7 (Homo sapiens) (UniProt Q13164); test: Selectivity interaction (Kinase panel (Carna Biosciences)) EUB0001542aTs MAPK7; conditions: at 1 µM

Mitogen-activated protein kinase 3, sequence (P27361 whole entry, the tested form may be a part): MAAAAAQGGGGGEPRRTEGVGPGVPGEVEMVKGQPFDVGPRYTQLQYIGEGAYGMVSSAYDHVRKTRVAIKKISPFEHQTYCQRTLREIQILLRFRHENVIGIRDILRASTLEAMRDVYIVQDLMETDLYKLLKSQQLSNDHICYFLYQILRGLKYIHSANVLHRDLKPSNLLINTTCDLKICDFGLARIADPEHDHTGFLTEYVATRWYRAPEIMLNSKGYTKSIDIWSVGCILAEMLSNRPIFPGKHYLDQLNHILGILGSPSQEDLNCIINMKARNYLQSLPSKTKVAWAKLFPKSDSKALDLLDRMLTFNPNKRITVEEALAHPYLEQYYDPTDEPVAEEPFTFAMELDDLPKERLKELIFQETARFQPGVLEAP
Ribosomal protein S6 kinase alpha-3, sequence (P51812 whole entry): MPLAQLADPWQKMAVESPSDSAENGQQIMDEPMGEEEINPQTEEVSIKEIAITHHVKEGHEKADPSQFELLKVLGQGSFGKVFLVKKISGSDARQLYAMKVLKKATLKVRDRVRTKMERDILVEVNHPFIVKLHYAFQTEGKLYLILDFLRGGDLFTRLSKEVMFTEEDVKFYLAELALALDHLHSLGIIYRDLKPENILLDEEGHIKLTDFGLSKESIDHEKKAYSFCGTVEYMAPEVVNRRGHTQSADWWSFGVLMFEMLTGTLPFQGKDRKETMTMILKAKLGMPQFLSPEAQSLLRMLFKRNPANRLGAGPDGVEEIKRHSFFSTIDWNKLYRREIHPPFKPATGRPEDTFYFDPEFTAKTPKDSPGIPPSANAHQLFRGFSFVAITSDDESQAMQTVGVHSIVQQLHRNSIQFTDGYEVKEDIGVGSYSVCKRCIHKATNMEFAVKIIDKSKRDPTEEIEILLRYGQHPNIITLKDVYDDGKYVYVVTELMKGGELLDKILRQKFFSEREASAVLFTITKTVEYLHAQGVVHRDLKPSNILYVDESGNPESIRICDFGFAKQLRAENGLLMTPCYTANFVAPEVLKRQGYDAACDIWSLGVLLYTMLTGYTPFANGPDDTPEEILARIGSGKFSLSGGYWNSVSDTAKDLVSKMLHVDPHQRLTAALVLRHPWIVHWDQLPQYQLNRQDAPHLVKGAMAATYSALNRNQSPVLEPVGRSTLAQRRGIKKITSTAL
Ephrin type-A receptor 4, sequence (P54764 whole entry): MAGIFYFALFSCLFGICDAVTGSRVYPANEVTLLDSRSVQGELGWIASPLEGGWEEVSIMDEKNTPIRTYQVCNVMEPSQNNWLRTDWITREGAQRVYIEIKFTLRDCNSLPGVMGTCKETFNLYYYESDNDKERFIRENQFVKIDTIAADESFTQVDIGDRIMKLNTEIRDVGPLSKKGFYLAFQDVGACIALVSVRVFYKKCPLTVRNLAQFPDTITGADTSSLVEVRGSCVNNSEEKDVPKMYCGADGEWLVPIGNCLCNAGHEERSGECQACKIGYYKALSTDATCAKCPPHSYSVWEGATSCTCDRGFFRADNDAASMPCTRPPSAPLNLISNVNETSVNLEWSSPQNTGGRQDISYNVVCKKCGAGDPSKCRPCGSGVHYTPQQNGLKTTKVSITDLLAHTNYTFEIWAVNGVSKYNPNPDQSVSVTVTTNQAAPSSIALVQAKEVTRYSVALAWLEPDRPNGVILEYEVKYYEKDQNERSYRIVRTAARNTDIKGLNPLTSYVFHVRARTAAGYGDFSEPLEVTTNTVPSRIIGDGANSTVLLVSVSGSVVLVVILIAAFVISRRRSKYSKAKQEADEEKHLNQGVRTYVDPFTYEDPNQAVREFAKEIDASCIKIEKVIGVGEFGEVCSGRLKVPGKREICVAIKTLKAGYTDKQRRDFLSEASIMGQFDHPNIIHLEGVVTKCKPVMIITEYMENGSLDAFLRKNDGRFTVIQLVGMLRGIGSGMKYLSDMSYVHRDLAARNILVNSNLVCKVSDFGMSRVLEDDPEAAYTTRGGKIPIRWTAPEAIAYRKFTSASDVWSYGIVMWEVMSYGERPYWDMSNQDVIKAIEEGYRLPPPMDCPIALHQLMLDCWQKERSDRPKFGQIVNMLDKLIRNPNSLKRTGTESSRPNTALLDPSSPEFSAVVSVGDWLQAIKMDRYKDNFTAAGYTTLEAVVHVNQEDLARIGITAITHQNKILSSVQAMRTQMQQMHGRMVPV
Fibroblast growth factor receptor 3 (Homo sapiens), P22607 [K650E], sequence (P22607 whole entry K650E): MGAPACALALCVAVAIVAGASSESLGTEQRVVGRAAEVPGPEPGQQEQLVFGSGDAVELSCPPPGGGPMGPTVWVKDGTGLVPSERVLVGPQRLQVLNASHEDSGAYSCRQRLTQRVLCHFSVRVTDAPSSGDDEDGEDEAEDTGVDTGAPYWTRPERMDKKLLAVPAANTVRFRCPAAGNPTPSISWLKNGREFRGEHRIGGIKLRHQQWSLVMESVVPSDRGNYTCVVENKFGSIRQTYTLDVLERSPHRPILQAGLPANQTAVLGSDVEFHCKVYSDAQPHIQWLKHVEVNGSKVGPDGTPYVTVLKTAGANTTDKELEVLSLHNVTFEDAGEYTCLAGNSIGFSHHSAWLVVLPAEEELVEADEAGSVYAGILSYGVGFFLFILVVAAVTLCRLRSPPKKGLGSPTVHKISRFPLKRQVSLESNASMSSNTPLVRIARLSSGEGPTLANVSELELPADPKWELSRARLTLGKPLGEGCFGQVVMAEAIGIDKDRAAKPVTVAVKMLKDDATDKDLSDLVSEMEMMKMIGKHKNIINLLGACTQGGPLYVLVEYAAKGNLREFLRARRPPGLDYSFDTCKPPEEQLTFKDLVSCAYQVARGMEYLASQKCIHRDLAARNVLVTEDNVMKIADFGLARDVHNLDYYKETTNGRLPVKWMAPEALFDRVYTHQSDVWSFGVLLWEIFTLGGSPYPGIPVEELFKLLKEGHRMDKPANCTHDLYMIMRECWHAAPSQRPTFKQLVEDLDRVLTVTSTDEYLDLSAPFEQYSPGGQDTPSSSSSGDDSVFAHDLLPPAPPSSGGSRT
Mitogen-activated protein kinase kinase kinase 9 (Homo sapiens), sequence (P80192 whole entry, looked up): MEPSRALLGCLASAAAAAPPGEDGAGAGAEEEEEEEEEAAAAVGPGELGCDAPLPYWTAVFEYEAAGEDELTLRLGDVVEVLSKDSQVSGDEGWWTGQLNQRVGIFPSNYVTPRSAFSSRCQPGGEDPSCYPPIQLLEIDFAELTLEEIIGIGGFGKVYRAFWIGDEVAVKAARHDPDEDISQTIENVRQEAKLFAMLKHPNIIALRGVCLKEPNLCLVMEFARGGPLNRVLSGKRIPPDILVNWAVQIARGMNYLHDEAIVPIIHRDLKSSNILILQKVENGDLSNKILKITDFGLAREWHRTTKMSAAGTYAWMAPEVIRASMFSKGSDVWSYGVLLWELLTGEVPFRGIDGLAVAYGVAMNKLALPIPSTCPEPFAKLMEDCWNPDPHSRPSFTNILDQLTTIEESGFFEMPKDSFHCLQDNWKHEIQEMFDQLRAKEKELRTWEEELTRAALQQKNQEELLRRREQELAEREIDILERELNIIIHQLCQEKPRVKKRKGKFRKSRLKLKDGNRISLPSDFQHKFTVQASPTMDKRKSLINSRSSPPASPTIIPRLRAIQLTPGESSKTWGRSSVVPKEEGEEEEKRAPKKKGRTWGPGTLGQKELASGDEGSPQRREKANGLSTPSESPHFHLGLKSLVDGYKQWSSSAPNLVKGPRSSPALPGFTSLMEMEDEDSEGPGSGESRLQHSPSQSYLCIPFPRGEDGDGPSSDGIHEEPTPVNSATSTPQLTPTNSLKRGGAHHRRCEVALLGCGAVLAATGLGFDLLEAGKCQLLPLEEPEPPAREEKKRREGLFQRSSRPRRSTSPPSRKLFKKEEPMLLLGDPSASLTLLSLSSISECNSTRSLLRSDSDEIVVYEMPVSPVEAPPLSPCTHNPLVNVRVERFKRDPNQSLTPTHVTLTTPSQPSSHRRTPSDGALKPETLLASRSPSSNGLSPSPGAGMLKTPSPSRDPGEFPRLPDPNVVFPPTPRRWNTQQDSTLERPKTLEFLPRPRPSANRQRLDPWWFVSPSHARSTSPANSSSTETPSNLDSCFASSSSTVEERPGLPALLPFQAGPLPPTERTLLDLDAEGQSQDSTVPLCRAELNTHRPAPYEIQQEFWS
Calcium/calmodulin-dependent protein kinase kinase 2 (Homo sapiens), sequence (Q96RR4 2-588 limits assumed): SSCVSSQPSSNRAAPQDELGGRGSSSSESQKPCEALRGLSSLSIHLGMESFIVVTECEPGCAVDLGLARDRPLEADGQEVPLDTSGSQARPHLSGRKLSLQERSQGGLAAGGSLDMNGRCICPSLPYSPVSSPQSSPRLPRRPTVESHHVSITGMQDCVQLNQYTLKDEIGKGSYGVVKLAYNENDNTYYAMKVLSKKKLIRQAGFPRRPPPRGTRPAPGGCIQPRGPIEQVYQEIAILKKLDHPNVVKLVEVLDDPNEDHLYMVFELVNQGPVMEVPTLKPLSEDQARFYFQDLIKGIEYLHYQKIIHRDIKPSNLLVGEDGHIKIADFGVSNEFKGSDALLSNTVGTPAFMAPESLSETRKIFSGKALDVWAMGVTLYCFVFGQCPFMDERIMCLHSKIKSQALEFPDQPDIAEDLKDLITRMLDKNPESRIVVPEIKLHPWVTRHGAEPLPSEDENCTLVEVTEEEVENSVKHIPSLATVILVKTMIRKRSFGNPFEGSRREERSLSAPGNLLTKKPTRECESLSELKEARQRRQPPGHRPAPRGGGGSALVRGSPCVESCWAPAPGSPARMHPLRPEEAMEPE
Mitogen-activated protein kinase 14, sequence (Q16539 whole entry): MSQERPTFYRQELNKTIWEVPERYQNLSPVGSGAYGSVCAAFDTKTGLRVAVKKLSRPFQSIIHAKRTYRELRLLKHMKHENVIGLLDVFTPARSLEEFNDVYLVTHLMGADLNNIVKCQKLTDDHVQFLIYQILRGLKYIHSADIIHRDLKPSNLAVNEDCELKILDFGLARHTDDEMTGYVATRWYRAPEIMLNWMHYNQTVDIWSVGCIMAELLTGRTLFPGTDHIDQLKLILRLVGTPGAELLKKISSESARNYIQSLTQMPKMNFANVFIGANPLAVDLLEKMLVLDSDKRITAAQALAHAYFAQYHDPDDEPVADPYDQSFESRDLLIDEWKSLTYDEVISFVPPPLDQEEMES

% of control [1]: 100%
% of control [2]: 100%
% of control [3]: 100%
Structure (SMILES): CCN(CC)CCCCNc1ncc2cc(-c3cc(OC)cc(OC)c3)c(NC(=O)NC(C)(C)C)nc2n1

Structure (SMILES): CNC(=O)Nc1ccc(-c2nc(N3CC4CCC(C3)O4)c3cnn(C4CCC5(CC4)OCCO5)c3n2)cc1
% of inhibition [4]: 5%
% of inhibition [5]: 6%

Structure (SMILES): N#Cc1cccc(-c2c[nH]c3ncnc(N4CCOCC4)c23)c1
% of control [6]: 79%

Structure (SMILES): C=CC(=O)Nc1cc(-n2c(=O)ccc3cnc4ccc(-c5ccc(NS(C)(=O)=O)cc5)cc4c32)ccc1C
% of control ([7]; at 1 µM): 81%
% of control ([7]; at 10 µM): 100%

Structure (SMILES): COCC(=O)NC/C=C/c1ccc2ncnc(Nc3ccc(Oc4ccc(C)nc4)c(C)c3)c2c1 [CP-724714]
% of control [8]: 99%

% of inhibition [9]: 11%
Structure (SMILES): Cc1ccc(-c2ccc3c(ccc4sc5c(c43)NC[C@@H](C)NC5=O)n2)cn1

Structure (SMILES): Cc1cc([C@@H](C)Nc2ccccc2C(=O)O)c2nc(N3CCOCC3)cc(=O)n2c1 [AZD-6482]
% of control [10]: 100%
% of control [11]: 97%

% of inhibition [12]: 12.1%
% of inhibition ([13]; at 0.01 µM): 0.3%
% of inhibition ([13]; at 0.04 µM): 0.4%
% of inhibition ([13]; at 0.2 µM): 5%
% of inhibition ([13]; at 1 µM): 5.6%
% of inhibition ([13]; at 5 µM): -4.9%
Structure (SMILES): CC[C@@H]1[C@H](F)C(=O)N[C@@H]1COc1nccc2cc(C(N)=O)c(OC)cc12 [ZIMLOVISERTIB]

dTagg [14]: 0 K
Structure (SMILES): Cc1cc(CN)cc(C)c1-c1ncn(C)c1-c1cncn1C

Structure (SMILES): COc1cc(N(C)c2ccnc3ccc(C(F)(F)F)cc23)cc(OC)c1OC
% binding [15]: 88%
% binding [16]: 86%
% binding [17]: 58%

Structure (SMILES): CN(C)C(=O)Cn1cc(-c2ccc(-c3cncc4ccccc34)cc2)cn1
% of control [18]: 54%

Structure (SMILES): COc1cc(Nc2nc(C)cc(-c3cnn4nc(OC)ccc34)n2)cc(C(F)(F)F)c1
% of control [19]: 83%

IC50 (Ephrin type-A receptor 4): > 10 µM
Structure (SMILES): CCC(=O)N1CC[C@H](Nc2ncnc3c2CN(c2cnc(OC)c(C(F)(F)F)c2)CC3)C1 [LENIOLISIB]

% of inhibition [20]: 63%
Structure (SMILES): Cn1cc(Nc2nccc(N3CC4CCC(C3)N4C(=O)[C@@H]3CC3(F)F)n2)cn1
